Experimental data reported in ChEMBL document CHEMBL1150977, “A quantitative analysis of kinase inhibitor selectivity” (Nat Biotechnol, 2008).

How the values were obtained:
[1] = target: T1, Serine/threonine-protein kinase PLK4 (Homo sapiens, UniProt O00444)
T1 sequence (O00444 whole entry): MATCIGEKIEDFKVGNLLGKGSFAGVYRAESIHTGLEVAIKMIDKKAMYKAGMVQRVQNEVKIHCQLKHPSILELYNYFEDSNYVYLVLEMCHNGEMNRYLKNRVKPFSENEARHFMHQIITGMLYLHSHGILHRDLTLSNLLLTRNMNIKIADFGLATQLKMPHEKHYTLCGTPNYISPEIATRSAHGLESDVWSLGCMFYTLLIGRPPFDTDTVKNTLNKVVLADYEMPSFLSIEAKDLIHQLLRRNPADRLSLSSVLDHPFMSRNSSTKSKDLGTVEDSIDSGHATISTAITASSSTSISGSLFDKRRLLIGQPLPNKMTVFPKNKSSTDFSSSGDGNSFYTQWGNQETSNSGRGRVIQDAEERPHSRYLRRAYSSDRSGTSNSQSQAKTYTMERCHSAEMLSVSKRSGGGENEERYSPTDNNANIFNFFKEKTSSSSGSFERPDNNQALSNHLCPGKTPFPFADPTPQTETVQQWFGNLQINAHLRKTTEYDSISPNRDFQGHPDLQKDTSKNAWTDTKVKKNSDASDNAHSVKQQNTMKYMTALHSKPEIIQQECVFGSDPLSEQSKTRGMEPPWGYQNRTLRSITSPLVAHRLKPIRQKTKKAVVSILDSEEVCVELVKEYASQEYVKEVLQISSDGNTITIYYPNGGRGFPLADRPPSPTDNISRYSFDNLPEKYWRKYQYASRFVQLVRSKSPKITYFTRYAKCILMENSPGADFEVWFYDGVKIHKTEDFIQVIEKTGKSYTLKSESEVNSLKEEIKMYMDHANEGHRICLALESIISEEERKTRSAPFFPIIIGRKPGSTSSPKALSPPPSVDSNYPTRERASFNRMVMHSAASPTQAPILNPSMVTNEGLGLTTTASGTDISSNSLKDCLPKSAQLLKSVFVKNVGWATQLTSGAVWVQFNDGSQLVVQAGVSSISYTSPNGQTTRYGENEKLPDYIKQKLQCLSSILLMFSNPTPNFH

Activin receptor type-2B = Activin receptor type-2B (Homo sapiens, UniProt Q13705)
[2] = target: Ribosomal protein S6 kinase alpha-2 (Homo sapiens, UniProt Q15349)
[3] = target: Tyrosine-protein kinase Fyn (Homo sapiens, UniProt P06241)
[4] = target: Casein kinase II subunit alpha (Homo sapiens, UniProt P68400)
[5] = target: Ribosomal protein S6 kinase alpha-4 (Homo sapiens, UniProt O75676)
Activin receptor type-1 = target: T2, Activin receptor type-1 (Homo sapiens, UniProt Q04771)
T2 sequence (Q04771 whole entry): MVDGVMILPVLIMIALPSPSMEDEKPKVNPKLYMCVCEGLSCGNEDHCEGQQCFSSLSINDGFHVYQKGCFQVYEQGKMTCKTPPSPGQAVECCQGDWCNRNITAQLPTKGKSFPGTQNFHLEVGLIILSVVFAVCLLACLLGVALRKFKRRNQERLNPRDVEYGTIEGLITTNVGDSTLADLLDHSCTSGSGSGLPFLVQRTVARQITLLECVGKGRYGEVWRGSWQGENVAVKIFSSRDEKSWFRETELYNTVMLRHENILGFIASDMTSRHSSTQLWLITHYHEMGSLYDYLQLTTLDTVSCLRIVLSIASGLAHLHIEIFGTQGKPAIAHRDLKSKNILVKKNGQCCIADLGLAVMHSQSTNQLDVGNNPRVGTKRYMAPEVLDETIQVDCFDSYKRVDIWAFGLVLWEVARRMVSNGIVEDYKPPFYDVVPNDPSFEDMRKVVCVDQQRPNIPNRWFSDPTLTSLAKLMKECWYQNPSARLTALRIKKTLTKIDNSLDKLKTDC

[6] = target: Mitogen-activated protein kinase kinase kinase 10 (Homo sapiens, UniProt Q02779)
[7] = target: Serine/threonine-protein kinase 16 (Homo sapiens, UniProt O75716)
[8] = target: T3, Serine/threonine-protein kinase LATS2 (Homo sapiens, UniProt Q9NRM7)
T3 sequence (Q9NRM7 whole entry): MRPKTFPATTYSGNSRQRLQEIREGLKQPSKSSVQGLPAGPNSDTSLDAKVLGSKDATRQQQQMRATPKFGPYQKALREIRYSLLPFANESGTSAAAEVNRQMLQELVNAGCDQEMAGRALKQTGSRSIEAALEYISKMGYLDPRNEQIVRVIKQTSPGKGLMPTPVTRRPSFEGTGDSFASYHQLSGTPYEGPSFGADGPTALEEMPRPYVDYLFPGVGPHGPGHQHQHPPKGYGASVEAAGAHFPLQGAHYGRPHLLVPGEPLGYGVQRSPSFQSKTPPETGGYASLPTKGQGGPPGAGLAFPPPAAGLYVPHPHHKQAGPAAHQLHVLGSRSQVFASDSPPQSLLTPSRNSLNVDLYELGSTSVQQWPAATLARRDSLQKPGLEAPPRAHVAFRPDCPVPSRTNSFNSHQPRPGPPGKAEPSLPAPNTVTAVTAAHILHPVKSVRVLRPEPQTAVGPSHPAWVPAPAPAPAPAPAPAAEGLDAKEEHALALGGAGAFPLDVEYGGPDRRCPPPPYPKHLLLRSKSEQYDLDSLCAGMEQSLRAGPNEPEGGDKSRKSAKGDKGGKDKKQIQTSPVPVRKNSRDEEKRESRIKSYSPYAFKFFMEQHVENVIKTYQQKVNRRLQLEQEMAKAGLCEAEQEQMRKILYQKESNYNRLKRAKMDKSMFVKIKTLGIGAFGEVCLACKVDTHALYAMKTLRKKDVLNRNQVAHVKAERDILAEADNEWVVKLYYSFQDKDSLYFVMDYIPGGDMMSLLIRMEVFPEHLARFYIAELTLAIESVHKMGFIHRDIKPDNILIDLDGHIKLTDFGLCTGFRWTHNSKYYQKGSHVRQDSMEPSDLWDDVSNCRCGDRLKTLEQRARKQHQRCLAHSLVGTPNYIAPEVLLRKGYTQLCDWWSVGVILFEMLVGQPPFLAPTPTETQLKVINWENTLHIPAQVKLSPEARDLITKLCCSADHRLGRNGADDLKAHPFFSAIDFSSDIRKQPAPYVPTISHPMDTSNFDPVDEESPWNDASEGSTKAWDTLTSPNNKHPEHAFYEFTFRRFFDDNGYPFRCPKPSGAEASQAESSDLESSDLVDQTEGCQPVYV

[9] = target: Tyrosine-protein kinase ABL1 (Homo sapiens, UniProt P00519, Q252H)

## COCC(=O)NC/C=C/c1ccc2ncnc(Nc3ccc(Oc4ccc(C)nc4)c(C)c3)c2c1 [CP-724714]
[1]
  Kd: > 10 µM
Activin receptor type-2B
  Kd: > 10 µM
[2]
  Kd: > 10 µM
[3]
  Kd: > 10 µM
[4]
  Kd: > 10 µM
[5]
  Kd: > 10 µM
Activin receptor type-1
  Kd: > 10 µM
[6]
  Kd: > 10 µM
[7]
  Kd: > 10 µM
[8]
  Kd: > 10 µM
[9]
  Kd: > 10 µM

## NC(=O)c1ccc(-c2nc(-c3ccc4c(c3)OCO4)c(-c3ccccn3)[nH]2)cc1 [SB-431542]
[1]
  Kd: > 10 µM
Activin receptor type-2B
  Kd: > 10 µM
[2]
  Kd: > 10 µM
[3]
  Kd: > 10 µM
[4]
  Kd: > 10 µM
[5]
  Kd: > 10 µM
Activin receptor type-1
  Kd: > 10 µM
[6]
  Kd: > 10 µM
[7]
  Kd: > 10 µM
[8]
  Kd: > 10 µM
[9]
  Kd: > 10 µM

## Nc1nc(Nc2ccc(S(N)(=O)=O)cc2)nn1C(=O)c1c(F)cccc1F [JNJ-7706621]
[1]
  Kd: 0.12 µM
Activin receptor type-2B
  Kd: 5.9 µM
[2]
  Kd: 0.41 µM
[4]
  Kd: > 10 µM
[5]
  Kd: > 10 µM

## CCOc1cc2ncc(C#N)c(Nc3ccc(F)c(Cl)c3)c2cc1NC(=O)/C=C/CN(C)C [PELITINIB]
[1]
  Kd: > 10 µM
Activin receptor type-2B
  Kd: > 10 µM
[2]
  Kd: > 10 µM
[4]
  Kd: > 10 µM
[5]
  Kd: > 10 µM
Activin receptor type-1
  Kd: > 10 µM
[6]
  Kd: > 10 µM
[7]
  Kd: > 10 µM
[8]
  Kd: > 10 µM

## Oc1ccc(-c2nc(-c3ccncc3)c(-c3ccc(F)cc3)[nH]2)cc1 [SB-202190]
[1]
  Kd: > 10 µM
Activin receptor type-2B
  Kd: 4.8 µM
[2]
  Kd: > 10 µM
[3]
  Kd: > 10 µM
[4]
  Kd: > 10 µM
[5]
  Kd: > 10 µM
Activin receptor type-1
  Kd: > 10 µM
[6]
  Kd: > 10 µM
[7]
  Kd: > 10 µM
[9]
  Kd: > 10 µM
